pIC50: −log10 of the molar value.
What was measured:
Phospholipase D2 [1] = target: T1, Phospholipase D2 (Homo sapiens, UniProt O14939); assay: Inhibition of PLD2 at 1 uM
Phospholipase D2 [2] = target: T1, Phospholipase D2
[3] = Clearance in rat at 5 mg/kg, po or 1 mg/kg, iv; format: ADME, organism-based; settings: in vivo
[4] = Half life in rat at 5 mg/kg, po or 1 mg/kg, iv; format: ADME, organism-based; settings: in vivo
[5] = Cmax in rat at 5 mg/kg, po or 1 mg/kg, iv; format: ADME, organism-based; settings: in vivo
Rattus norvegicus = assay: AUC in rat at 5 mg/kg, po or 1 mg/kg, iv; format: ADME, organism-based, Plasma; settings: in vivo
[6] = Oral bioavailability in rat at 5 mg/kg; format: ADME, organism-based; settings: in vivo

T1 sequence (O14939 whole entry): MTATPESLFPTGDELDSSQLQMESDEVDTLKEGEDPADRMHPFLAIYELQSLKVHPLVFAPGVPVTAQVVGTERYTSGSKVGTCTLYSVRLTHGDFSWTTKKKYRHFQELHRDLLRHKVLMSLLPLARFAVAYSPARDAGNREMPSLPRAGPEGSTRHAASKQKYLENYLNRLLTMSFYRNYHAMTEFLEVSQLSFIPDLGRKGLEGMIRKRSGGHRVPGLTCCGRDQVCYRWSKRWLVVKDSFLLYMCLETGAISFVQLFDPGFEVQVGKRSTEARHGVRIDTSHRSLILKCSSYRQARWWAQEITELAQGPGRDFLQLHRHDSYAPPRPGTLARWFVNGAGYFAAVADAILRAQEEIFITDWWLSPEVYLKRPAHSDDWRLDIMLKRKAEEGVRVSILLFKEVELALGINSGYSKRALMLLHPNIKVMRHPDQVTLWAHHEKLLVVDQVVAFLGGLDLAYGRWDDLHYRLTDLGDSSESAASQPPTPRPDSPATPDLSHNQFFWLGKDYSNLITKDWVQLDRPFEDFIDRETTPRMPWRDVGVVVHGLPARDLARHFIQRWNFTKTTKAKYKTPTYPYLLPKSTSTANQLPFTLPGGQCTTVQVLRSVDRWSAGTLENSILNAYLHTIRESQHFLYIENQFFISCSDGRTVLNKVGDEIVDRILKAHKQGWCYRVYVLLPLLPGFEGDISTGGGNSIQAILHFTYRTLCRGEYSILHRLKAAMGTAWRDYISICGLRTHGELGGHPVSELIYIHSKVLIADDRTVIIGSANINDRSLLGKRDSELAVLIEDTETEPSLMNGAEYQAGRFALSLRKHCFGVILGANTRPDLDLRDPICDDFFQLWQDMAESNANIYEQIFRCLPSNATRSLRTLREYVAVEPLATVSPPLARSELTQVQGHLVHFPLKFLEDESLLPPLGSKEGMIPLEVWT

Row | SMILES | pIC50 (Phospholipase D2 [2]) | inhibition (Phospholipase D2 [1]) [%] | further results
1 | O=C(NCCN1CCC(n2c(=O)[nH]c3ccccc32)CC1)OCc1ccccc1 | – | 0 | –
2 | CC(C)CC(=O)NCCN1CCC(n2c(=O)[nH]c3ccccc32)CC1 | – | 0 | –
3 | CC(C)C(=O)NCCN1CCC(n2c(=O)[nH]c3ccccc32)CC1 | – | 0 | –
4 | Cn1c(C(=O)NCCN2CCC(n3c(=O)[nH]c4ccccc43)CC2)cc2ccccc21 | – | 0 | –
5 | O=C(Cc1ccc(F)cc1)NCCN1CCC(n2c(=O)[nH]c3ccccc32)CC1 | – | 0 | –
6 | O=C(CCc1ccc(F)cc1)NCCN1CCC(n2c(=O)[nH]c3ccccc32)CC1 | – | 0 | –
7 | O=C(NCCN1CCC(n2c(=O)[nH]c3ccccc32)CC1)c1cc2cc(F)ccc2[nH]1 | 7.70 | – | clearance [3]: 36.3 mL/min/kg; half-life [4]: 5.57 h; Cmax [5]: 363 nM; AUC (Rattus norvegicus): 1.03 uM.hr/L; bioavailability [6]: 18.5%

Now from value to compound, other results behind:

Row | pIC50 (Phospholipase D2 [2]) | SMILES | inhibition (Phospholipase D2 [1]) [%] | further results
8 | 5.70 | O=C(NCCN1CCC(n2c(=O)[nH]c3ccccc32)CC1)c1cc2ccccc2s1 | – | –
9 | 7.70 | O=C(NCCN1CCC(n2c(=O)[nH]c3ccccc32)CC1)c1cc2ccccc2[nH]1 | – | –
10 | 5.85 | O=C(NCCN1CCC(n2c(=O)[nH]c3ccccc32)CC1)c1ccc(F)cc1 | – | –
11 | 5.82 | O=C(NCCN1CCC(n2c(=O)[nH]c3ccccc32)CC1)c1ccccc1 | – | –
12 | 6.00 | O=C(NCCN1CCC(n2c(=O)[nH]c3ccccc32)CC1)c1ccsc1 | – | –
